Data published in patent publication US12599572B2, “Solid lipid nanoparticles of curcumin” (priority 2018, dated 2026).
Values after ≈ are worked out from the molar mass of the structure shown. Where two headings read alike, the source gives them in different places.

Experiments:
[1] = Pharmacokinetic studies, single oral dose; assay type: in vivo, Wistar Rats; settings: rats, 100 mg/kg single oral dose
Experimental: For in vivo pharmacokinetic studies, female Wistar Rats were used. The animals were divided into 3 groups (n=3). […] The blood samples (0.5 ml) were withdrawn from retro-orbital plexus at different time intervals and collected into microcentrifuge tubes containing EDTA. Plasma was separated by centrifuging the blood samples at 10000 rpm for 6 min at 5° C. After centrifugation, the plasma obtained was stored at −20° C. until analysis. […] To 50 μl of plasma samples in an eppendorf tube, 150 μl of methanol and 300 μl of acetonitrile:water (1:1) was added. The sample was vortexed for 5 min and centrifuged at 15,000 rpm to separate precipitated proteins. Supernatant was transferred to suitably labelled tubes. The sample was filtered through 0.2 μm syringe filter and was used for analysis using the developed Ultra high pressure liquid chromatography (UPLC) method. The pharmacokinetic parameters were calculated using non-compartmental model. The area under the concentration-time curve from time zero to time t (AUCo-t) was calculated using the trapezoidal method. Peak concentration (Cmax) and the time at which the peak concentration is achieved (Tmax), were obtained directly from the individual concentration-time profiles. All values were corrected for the spiked concentration. The area under the concentration-time curve from time zero to infinity was calculated by: AUCo-x=AUCo-+Ct/Ke, where Ct is the drug concentration observed at the last time and Ke is the apparent elimination rate constant obtained from the terminal slope of the individual concentration-time curves after logarithmic transformation of the concentration values and application of linear regression. AUMC was determined by plotting concentration*time (ct) versus time (t) using trapezoidal method. Mean residence time (MRT) was calculated by: MRT=AUMC/AUC.

Solubility of curcumin = assay type: physicochemical
[2] = Degradation studies (hydrolytic stability at pH 1.2, 6.8, 7.4 and 9); assay type: physicochemical; settings: for k value: zero order
Experimental: It was further diluted to 5 μg/ml with respective buffers (pH 1.2, pH 6.8, pH 7.4 and pH 9). In case of C-SLNaq, Iml dispersion was placed in a dialysis bag and dialyzed against methanol (100 ml) at room temperature for 45 minutes to remove unentrapped drug. […] The stock solution and sample solution were prepared in amber coloured volumetric flasks to avoid photodegradation. The solutions were prepared and incubated at 37° C. […] […] Presence of water quenches the fluorescent intensity of curcumin. The samples were thus analysed subsequently using the UV/Visible spectrophotometer at λmax425 nm. The absorbance read at zero time was considered as 100% and change in concentration and % degradation was determined accordingly.
The graph between concentration versus time, log concentration versus time and percent drug remaining versus time were plotted.

[3] = Photostability study (ICH); assay type: physicochemical
Experimental: The above samples were placed in photostability chamber and exposed to light providing illumination of not less than 1.2 million lux hours for 10 days. After 10 days the containers were withdrawn and […] evaluated for total drug content, entrapment efficiency, particle size, zeta-potential and PDI. Samples of free drug, […] and C-SLNbent were analysed for total drug content.

[4] = In-vitro release (Franz-diffusion cells, dialysis membrane); assay type: physicochemical
Experimental: Jacketed franz-diffusion cells were used for the determination of in-vitro release of free curcumin and curcumin from C-SLNaq. These cells consist of the donor and the receptor chamber between which dialysis membrane is positioned. The dialysis membrane was soaked in double distilled water for 12 h prior to use. The whole system was water jacketed and thermostatically controlled by an external circulating water bath at 37° C.±1° C. The used receptor media consisted of 50% ethanol in distilled water. […] The receptor media was stirred throughout the experiment, using a magnetic stirrer. Iml aliquots were withdrawn regularly from the receptor compartment at various times starting at 30 min and replaced by an equal volume of fresh receptor medium. The samples were analysed, immediately, spectrophotometrically at 425 nm.

[5] = combined with piperine, rats (Shoba et al., 1998); cited from earlier work

AUC(0-inf) ([1]; female, Wistar, rat, plasma): 2.69 ng·h/mL
Cmax ([1]; female, Wistar, rat, plasma): 1.79 ng/mL
MRT ([1]; female, Wistar, rat, plasma): 2 h
Tmax ([1]; female, Wistar, rat, plasma): 2 h
AUMC0-∞ [1]: 5.38 h^2*ng/ml
solubility (Solubility of curcumin; 50% (v/v) ethanol, aqueous with cosolvent or surfactant or cyclodextrin): 693 µg/mL (≈ 1880 µM)
solubility (Solubility of curcumin; water, read-out: aqueous solubility): 0.6 µg/mL (≈ 1.63 µM)
solubility (Solubility of curcumin; water, room temperature, read-out: Solubility in water): 0.003 ± 0.002 µg/mL (≈ 0.00814 µM)
half-life at 5 μg/ml ([2]; alkaline borate buffer pH 9, pH 9): 0.669 h
half-life at 5 μg/ml ([2]; buffer pH 1.2, pH 1.2): 17.3 h
order of degradation kinetics ([2]; investigated pH conditions (C-SLN: except pH 9)): zero order
Percentage remaining ([2]; pH 1.2, 0 h): 100.00 ± 0.06%
Percentage remaining ([2]; pH 1.2, 0.08 h): 89.23 ± 0.02%
Percentage remaining ([2]; pH 1.2, 0.25 h): 88.29 ± 0.01%
Percentage remaining ([2]; pH 1.2, 0.5 h): 85.60 ± 0.01%
Percentage remaining ([2]; pH 1.2, 1 h): 87.24 ± 0.001%
Percentage remaining ([2]; pH 1.2, 2 h): 72.37 ± 0.02%
Percentage remaining ([2]; pH 1.2, 3 h): 68.74 ± 0.03%
Percentage remaining ([2]; pH 1.2, 4 h): 62.76 ± 0.01%
Percentage remaining ([2]; pH 1.2, 5 h): 61.01 ± 0.01%
Percentage remaining ([2]; pH 1.2, 6 h): 53.40 ± 0.02%
Percentage remaining ([2]; pH 1.2, 24 h): 15.76 ± 0.01%
degradation ([2]; pH 1.2, 24 h): ≤ 85%
degradation ([2]; pH 1.2, upto 6 h): ≤ 50%
degradation ([2]; pH 1.2 medium, 4h): ~40%
Percentage remaining ([2]; pH 6.8, 0 h): 100.00 ± 0.04%
Percentage remaining ([2]; pH 6.8, 0.08 h): 94.93 ± 0.06%
Percentage remaining ([2]; pH 6.8, 0.25 h): 87.63 ± 0.04%
Percentage remaining ([2]; pH 6.8, 0.5 h): 81.95 ± 0.08%
Percentage remaining ([2]; pH 6.8, 1 h): 79.72 ± 0.06%
Percentage remaining ([2]; pH 6.8, 2 h): 66.73 ± 0.05%
Percentage remaining ([2]; pH 6.8, 3 h): 62.68 ± 0.07%
Percentage remaining ([2]; pH 6.8, 4 h): 57.81 ± 0.05%
Percentage remaining ([2]; pH 6.8, 5 h): 43.61 ± 0.08%
Percentage remaining ([2]; pH 6.8, 6 h): 23.12 ± 0.04%
degradation ([2]; pH 6.8, 6 h): 77%
Percentage remaining ([2]; pH 6.8, 24 h): 11.36 ± 0.04%
degradation ([2]; pH 6.8, 24 h): 89%
Percentage remaining ([2]; pH 7.4, 0 h): 100.0 ± 0.060%
Percentage remaining ([2]; pH 7.4, 0.08 h): 96.33 ± 0.02%
Percentage remaining ([2]; pH 7.4, 0.25 h): 93.81 ± 0.04%
Percentage remaining ([2]; pH 7.4, 0.5 h): 84.17 ± 0.04%
Percentage remaining ([2]; pH 7.4, 1 h): 75.92 ± 0.04%
Percentage remaining ([2]; pH 7.4, 2 h): 67.20 ± 0.03%
Percentage remaining ([2]; pH 7.4, 3 h): 61.01 ± 0.03%
Percentage remaining ([2]; pH 7.4, 4 h): 49.08 ± 0.04%
Percentage remaining ([2]; pH 7.4, 5 h): 40.60 ± 0.03%
Percentage remaining ([2]; pH 7.4, 6 h): 24.31 ± 0.01%
degradation ([2]; pH 7.4, 6 h): 75%
Percentage remaining ([2]; pH 7.4, 24 h): 13.99 ± 0.01%
degradation ([2]; pH 7.4, 24 h): 77%
Percentage remaining ([2]; pH 9, 0 h): 100.00 ± 0.004%
Percentage remaining ([2]; pH 9, 0.08 h): 82.59 ± 0.009%
Percentage remaining ([2]; pH 9, 0.25 h): 61.43 ± 0.004%
Percentage remaining ([2]; pH 9, 0.5 h): 32.76 ± 0.006%
Percentage remaining ([2]; pH 9, 1 h): 20.48 ± 0.001%
Percentage remaining ([2]; pH 9, 2 h): 15.70 ± 0.002%
Percentage remaining ([2]; pH 9, 3 h): 9.90 ± 0.003%
Percentage remaining ([2]; pH 9, 4 h): 2.39 ± 0.004%
degradation ([2]; pH 9, 4 h): approximately 98%
half-life at 5 μg/ml ([2]; phosphate buffer pH 6.8, pH 6.8): 1.32 h
half-life at 5 μg/ml ([2]; phosphate buffer pH 7.4, pH 7.4): 9.4 h
k value ([2]; pH 1.2): 0.039
k value ([2]; pH 6.8): 0.52
k value ([2]; pH 7.4): 0.073
k value ([2]; pH 9): 0.95
TDC % ([3]; Amber glass, 0 day): 100.00 ± 0%
TDC % ([3]; Amber glass, 10 days): 78.31 ± 7.1%
TDC % ([3]; Transparent, 0 day): 100.00 ± 0%
TDC % ([3]; Transparent, 10 days): 65.51 ± 7.5%
degradation ([3]; amber coloured containers, 10 days): 21.7%
degradation ([3]; transparent containers, 10 days): 35%
order of release [4]: first order
release model followed [4]: Hixon model
time over which drug was released ([4]; receptor 50% ethanol, 37° C.): ≤ 8 h
Compound: COc1cc(C=CC(=O)CC(=O)C=Cc2ccc(O)c(OC)c2)ccc1O [Free curcumin, 1,7-bis(4-hydroxy-3-methoxyphenyl)-1,6-hepadiene-3,5-dione]
increase in the oral bioavailability [5]: 154%
